Measured values reported in patent publication US8258321B2, “Beta-lactone compounds” (Burnham Institute for Medical Research, priority 2007, dated 2012).

system: MB-MDA-231 cells; test: Cell Viability Assay (MTS), MB-MDA-231; format: cell-based; settings: 3 k 231, 48 h
Protocol: (§1) Cell Viability Assays for Determination of Test Compound Potencies
(§2) Plates were incubated for 2 h and absorbance was assayed at 490 nm. Background levels of formazan formation were measured in medium alone. IC50 values were derived from dose-response curves.

Compound | IC50 [µM]
CCCCCCCCCCC[C@@H](C[C@@H]1OC(=O)[C@H]1CCCCCC)OC(=O)CN(C)C [drawing 152] | 26.9

same assay, conditions: 48 h, 3 k 231, 48 h

Compound | IC50 [µM]
C=CCC[C@H](CC1OC(=O)[C@H]1CCCCCC)OC(=O)CNC=O (stereo partly drawn) | > 100
CCCCCCCCCCC[C@@H](C[C@@H]1OC(=O)[C@H]1CCCCCC)OC(=O)CNC=O | 4.8
CCCCCCC/C=C/CC[C@@H](C[C@@H]1OC(=O)[C@H]1CCCCCC)OC(=O)[C@H](CC(C)C)NC=O | 62.5
CCCCCCCCCCC[C@@H](C[C@@H]1OC(=O)[C@H]1CCCCCC)OC(=O)[C@H](CC(C)C)NC=O | 20.1
CCCCCCCCCCCCC[C@H](CC1OC(=O)[C@@H]1CCCCCC)OC(=O)CNC=O (stereo partly drawn) | > 100
C/C=C/CC[C@@H](C[C@@H]1OC(=O)[C@H]1CCCCCC)OC(=O)[C@@H](NC=O)C(C)C | 23
C/C=C/CC[C@H](CC1OC(=O)[C@H]1CCCCCC)OC(=O)CNC=O (stereo partly drawn) | 57.3
CCCCCCCCCCC[C@@H](CC1OC(=O)[C@H]1CC)OC(=O)CNC=O (stereo partly drawn) | 88.4
CCCCCCCCCCC[C@@H](CC1OC(=O)[C@H]1CCCCCC)OC(=O)CN(C)C (stereo partly drawn) [drawing 171] | 52.1
CCCCCCCCCCC[C@@H](C[C@@H]1OC(=O)[C@H]1CCCCCC)OC(=O)c1ccccc1 [drawing 169] | > 100
CCCCCC[C@@H]1C(=O)OC1C[C@@H](COS(=O)(=O)c1ccc(C)cc1)OC(=O)CNC=O (stereo partly drawn) | > 100
CCCCCC[C@@H]1C(=O)OC1C[C@@H](C)OC(=O)CNC=O (stereo partly drawn) | > 100
CCCCCCCCCCC[C@H](C[C@@H]1OC(=O)[C@H]1CCCCCC)OC(=O)CNC=O | 11.7

system: human fibroblast cells; test: Cell Viability Assay (MTS), human fibroblast cells (HFF); format: cell-based; settings: 3 k HFF, 48 h, read-out: avg 3 k HFF IC50
Protocol: as §1, §2

Compound | IC50 [µM]
CCCCCCCCCCC[C@@H](CC1OC(=O)[C@H]1CCCCCC)OC(=O)CN(C)C (stereo partly drawn) [drawing 171] | 105
CCCCCCCCCCC[C@@H](C[C@@H]1OC(=O)[C@H]1CCCCCC)OC(=O)CN(C)C [drawing 152] | 37.3

same assay, conditions: 50 k HFF, 48 h, read-out: avg 50 k HFF IC50

Compound | IC50 [µM]
CCCCCCCCCCC[C@@H](C[C@@H]1OC(=O)[C@H]1CCCCCC)OC(=O)CN(C)C [drawing 152] | 49.3

same assay, conditions: Homo sapiens, Fibroblast, 48 h, 3 k HFF, read-out: avg 3 k HFF IC50

Compound | IC50 [µM]
C=CCC[C@H](CC1OC(=O)[C@H]1CCCCCC)OC(=O)CNC=O (stereo partly drawn) | > 100
CCCCCCCCCCC[C@@H](C[C@@H]1OC(=O)[C@H]1CCCCCC)OC(=O)CNC=O | 19.9
CCCCCCC/C=C/CC[C@@H](C[C@@H]1OC(=O)[C@H]1CCCCCC)OC(=O)[C@H](CC(C)C)NC=O | 43.9
CCCCCCCCCCC[C@@H](C[C@@H]1OC(=O)[C@H]1CCCCCC)OC(=O)[C@H](CC(C)C)NC=O | > 100
CCCCCCCCCCCCC[C@H](CC1OC(=O)[C@@H]1CCCCCC)OC(=O)CNC=O (stereo partly drawn) | > 100
C/C=C/CC[C@@H](C[C@@H]1OC(=O)[C@H]1CCCCCC)OC(=O)[C@@H](NC=O)C(C)C | 35
C/C=C/CC[C@H](CC1OC(=O)[C@H]1CCCCCC)OC(=O)CNC=O (stereo partly drawn) | 39.9
CCCCCCCCCCC[C@@H](CC1OC(=O)[C@H]1CC)OC(=O)CNC=O (stereo partly drawn) | > 100
C/C=C/CC[C@H](C[C@@H]1OC(=O)[C@H]1CCCCCC)OC(=O)[C@@H](NC=O)C(C)C | 101
CCCCCCCCCCC[C@@H](C[C@@H]1OC(=O)[C@H]1CCCCCC)OC(=O)c1ccccc1 [drawing 169] | > 100
CCCCCC[C@@H]1C(=O)OC1C[C@@H](COS(=O)(=O)c1ccc(C)cc1)OC(=O)CNC=O (stereo partly drawn) | > 100
CCCCCC[C@@H]1C(=O)OC1C[C@@H](C)OC(=O)CNC=O (stereo partly drawn) | > 100
CCCCCCCCCCC[C@H](C[C@@H]1OC(=O)[C@H]1CCCCCC)OC(=O)CNC=O | 46.8

same assay, conditions: Homo sapiens, Fibroblast, 48 h, 50 k HFF, read-out: avg 50 k HFF IC50

Compound | IC50 [µM]
C=CCC[C@H](CC1OC(=O)[C@H]1CCCCCC)OC(=O)CNC=O (stereo partly drawn) | > 100
CCCCCCCCCCC[C@@H](C[C@@H]1OC(=O)[C@H]1CCCCCC)OC(=O)CNC=O | 27.6
CCCCCCC/C=C/CC[C@@H](C[C@@H]1OC(=O)[C@H]1CCCCCC)OC(=O)[C@H](CC(C)C)NC=O | 94.9
CCCCCCCCCCC[C@@H](C[C@@H]1OC(=O)[C@H]1CCCCCC)OC(=O)[C@H](CC(C)C)NC=O | > 100
CCCCCCCCCCCCC[C@H](CC1OC(=O)[C@@H]1CCCCCC)OC(=O)CNC=O (stereo partly drawn) | > 100
C/C=C/CC[C@@H](C[C@@H]1OC(=O)[C@H]1CCCCCC)OC(=O)[C@@H](NC=O)C(C)C | 27.6
C/C=C/CC[C@H](CC1OC(=O)[C@H]1CCCCCC)OC(=O)CNC=O (stereo partly drawn) | 37
CCCCCCCCCCC[C@@H](CC1OC(=O)[C@H]1CC)OC(=O)CNC=O (stereo partly drawn) | > 100
C/C=C/CC[C@H](C[C@@H]1OC(=O)[C@H]1CCCCCC)OC(=O)[C@@H](NC=O)C(C)C | > 100
CCCCCCCCCCC[C@@H](CC1OC(=O)[C@H]1CCCCCC)OC(=O)CN(C)C (stereo partly drawn) [drawing 171] | 75.6
CCCCCCCCCCC[C@@H](C[C@@H]1OC(=O)[C@H]1CCCCCC)OC(=O)c1ccccc1 [drawing 169] | > 100
CCCCCC[C@@H]1C(=O)OC1C[C@@H](COS(=O)(=O)c1ccc(C)cc1)OC(=O)CNC=O (stereo partly drawn) | > 100
CCCCCC[C@@H]1C(=O)OC1C[C@@H](C)OC(=O)CNC=O (stereo partly drawn) | > 100
CCCCCC[C@@H]1C(=O)O[C@H]1C[C@H](CCCCC)OC(=O)[C@@H](NC=O)C(C)C | > 100
CCCCCCCCCCC[C@H](C[C@@H]1OC(=O)[C@H]1CCCCCC)OC(=O)CNC=O | 40.5
